SMILES strings stand for the structures. Like-named read-outs stand apart in the source and are kept apart here.

The test system of assay [1] is Phosphorylation of ERK1/2 in AsPC-1 cells. As to the kind of experiment: Phospho-ERK1/2 MSD Assay. The format is cell-based. As to the method:
Sixteen hours prior to compound treatment, AsPC-1 cells were seeded in 96-well cell culture plates at a density of 25,000 cells/well and incubated at 37° C., 5% CO2. A compound dose-response titration was diluted in growth media, added to appropriate wells of a cell culture plate, and then incubated at 37° C., 5% CO2 for 2 hours.

The target in assay [2] is T1, His-tagged KRAS G12D protein (Homo sapiens, UniProt P01116, G12D). As to the kind of experiment: biochemical.
Method: (§1) The plate was incubated for 30 minutes at room temperature. Biotinylated KRPep-2d substrate (Amgen) was diluted to nM in Assay Buffer and 2 μL was added to all wells and incubated for 1 hour at room temperature. Detection Reagent (0.4 nM LANCE Eu-W1024 Anti-6×His (Perkin Elmer AD0401), 5 nM streptavidin-d2 (Cisbio 610SADLA)) was prepared in Assay Buffer, then 4 µL was added to the plate and incubated for 1 hour at room temperature.
Assay [3] concerns the target T1, His-tagged KRAS G12D protein.
Method: as §1
The mark [4] stands for this setting: Homo sapiens, ASPC1, 2 h, read-out: 2 h p-ERK (AsPC-1 cells), IC50, AsPC-1 cells, 2 h compound treatment.
Where [5] appears, read: read-out: 2 h p-ERK (AsPC-1 cells), IC50, AsPC-1 cells, 2 h compound treatment.

T1 sequence (P01116 1-188 isoform P01116-2 G12D): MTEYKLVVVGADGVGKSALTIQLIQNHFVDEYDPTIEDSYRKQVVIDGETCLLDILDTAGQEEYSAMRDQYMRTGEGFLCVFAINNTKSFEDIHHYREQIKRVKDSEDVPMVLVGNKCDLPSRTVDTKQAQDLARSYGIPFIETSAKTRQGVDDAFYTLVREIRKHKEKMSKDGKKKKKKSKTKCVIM

The IC50 is the point on the concentration scale where inhibition reaches its midpoint. For the compound `CCc1c(F)ccc2cc(O)cc(-c3ncc4c(N5CCC(=O)C(F)(F)CC5)nc(OC[C@@]56CCCN5C[C@H](F)C6)nc4c3F)c12` [Example 150, 1-(7-(8-Ethyl-7-fluoro-3-hydroxy-naphthalen-1-yl)-8-fluoro-2-(((2R,7aS)-2-fluorotetrahydro-1H-pyrrolizin-7a(5H)-yl)methoxy)pyrido[4,3-d]pyrimidin-4-yl)-5,5-difluoroazepan-4-one], the figures for the IC50 in assay [1] (setting [4]) and in assay [2] were 1.43 µM and 0.003 µM, respectively.
For the compound `CCc1c(F)ccc2cc(O)cc(-c3ncc4c(N5CCC(S(N)(=O)=O)C5)nc(OC[C@@]56CCCN5C[C@H](F)C6)nc4c3F)c12` (stereo partly drawn) [Example 86, 1-(7-(8-Ethyl-7-fluoro-3-hydroxynaphthalen-1-yl)-8-fluoro-2-(((2R,7aS)-2-fluorotetrahydro-1H-pyrrolizin-7a(5H)-yl)methoxy)pyrido[4,3-d]pyrimidin-4-yl)pyrrolidine-3-sulfonamide], the IC50 in assay [1] (setting [4]) was above 10 µM; in assay [2] it was 0.064 µM.
On to `CCc1c(F)ccc2cc(O)cc(-c3ncc4c(N5CCCC(C#N)CC5)nc(OC[C@@]56CCCN5C[C@H](F)C6)nc4c3F)c12` (single isomer, unassigned) [Example 55], for which the IC50 in assay [1] (setting [5]) worked out at 0.259 µM; in assay [3], 0.003 µM.
As to `CCc1c(F)ccc2cc(O)cc(-c3ncc4c(N5CCCC(O)(C(F)F)C5)nc(OC[C@@]56CCCN5C[C@H](F)C6)nc4c3F)c12` (single isomer, unassigned) [Example 40], the concentration for half-maximal inhibition (IC50) in assay [1] (setting [5]) is 0.571 µM; in assay [2], 0.015 µM.
On to `CCc1c(F)ccc2cc(O)cc(-c3ncc4c(N5C[C@@H](O)C[C@H](F)C5)nc(OC[C@@]56CCCN5C[C@H](F)C6)nc4c3F)c12` (racemic) [Example 116, rac-(35,5S)-1-(7-(8-Ethyl-7-fluoro-3-hydroxynaphthalen-1-yl)-8-fluoro-2-(((2R,7aS)-2-fluorotetrahydro-1H-pyrrolizin-7a(5H)-yl)methoxy)pyrido[4,3-d]pyrimidin-4-yl)-5-fluoropiperidin-3-ol], for which the IC50 in assay [1] (setting [4]) came out at 0.792 µM; in assay [2] it was 0.004 µM.
The corresponding values for `C[C@@]1(O)CCCN(c2nc(OC[C@@]34CCCN3C[C@H](F)C4)nc3c(F)c(-c4cccc5ccc(F)c(F)c45)ncc23)C1` [Example 49, (R)-1-(7-(7,8-Difluoronaphthalen-1-yl)-8-fluoro-2-(((2R,7aS)-2-fluorotetrahydro-1H-pyrrolizin-7a(5H)-yl)methoxy)pyrido[4,3-d]pyrimidin-4-yl)-3-methylpiperidin-3-ol] are 0.991 µM and 0.017 µM.
For `C#Cc1c(F)ccc2cc(O)cc(-c3ncc4c(N5CC6CC(O)C(C6)C5)nc(OC[C@@]56CCCN5C[C@H](F)C6)nc4c3F)c12` (single isomer, unassigned) [Example 28], the concentration for half-maximal inhibition (IC50) in assay [1] (setting [5]) is 0.036 µM; in assay [2], 0.001 µM.
Regarding `CCc1c(F)ccc2cc(O)cc(-c3ncc4c(N5CCCCC[C@@H]5C)nc(OC[C@@]56CCCN5C[C@H](F)C6)nc4c3F)c12` [Example 81, 5-Ethyl-6-fluoro-4-(8-fluoro-2-(((2R,7aS)-2-fluorotetrahydro-1H-pyrrolizin-7a(5H)-yl)methoxy)-4-((S)-2-methylazepan-1-yl)pyrido[4,3-d]pyrimidin-7-yl)naphthalen-2-ol], the values for the IC50 in assay [1] (setting [4]) and in assay [2] were 1.16 µM and 0.019 µM, respectively.
On the same counts, the results for `CCc1c(F)ccc2cc(O)cc(-c3ncc4c(N5CCCC[C@@H](O)C5)nc(OC[C@@]56CCCN5C[C@H](F)C6)nc4c3F)c12` [Example 129, (R)-1-(7-(8-Ethyl-7-fluoro-3-hydroxynaphthalen-1-yl)-8-fluoro-2-(((2R,7aS)-2-fluorotetrahydro-1H-pyrrolizin-7a(5H)-yl)methoxy)pyrido[4,3-d]pyrimidin-4-yl)azepan-3-ol] are 0.064 µM and 0.001 µM.
Turning to `CCc1c(F)ccc2cc(O)cc(-c3ncc4c(N5CCCCCCC5)nc(OC[C@@]56CCCN5C[C@H](F)C6)nc4c3F)c12` [Example 93, 4-(4-(Azocan-1-yl)-8-fluoro-2-(((2R,7aS)-2-fluorotetrahydro-1H-pyrrolizin-7a(5H)-yl)methoxy)pyrido[4,3-d]pyrimidin-7-yl)-5-ethyl-6-fluoronaphthalen-2-ol], the IC50 in assay [1] (setting [4]) is 0.1 µM; in assay [2], 0.002 µM.
Turning to `CCc1c(F)ccc2cc(O)cc(-c3ncc4c(N5CC6CC(O)C6C5)nc(OC[C@@]56CCCN5C[C@H](F)C6)nc4c3F)c12` (stereo partly drawn) [Example 9, 3-(7-(8-Ethyl-7-fluoro-3-hydroxynaphthalen-1-yl)-8-fluoro-2-(((2R,7aS)-2-fluorotetrahydro-1H-pyrrolizin-7a(5H)-yl)methoxy)pyrido[4,3-d]pyrimidin-4-yl)-3-azabicyclo[3.2.0]heptan-6-ol], the results for the IC50 in assay [1] (setting [4]) and in assay [2] were 1.34 µM and 0.005 µM, respectively.
The corresponding values for `CCc1c(F)ccc2cc(O)cc(-c3ncc4c(N5CCCC(N)CC5)nc(OC[C@@]56CCCN5C[C@H](F)C6)nc4c3F)c12` (stereo partly drawn) [Example 143, 4-(4-(4-Aminoazepan-1-yl)-8-fluoro-2-(((2R,7aS)-2-fluorotetrahydro-1H-pyrrolizin-7a(5H)-yl)methoxy)pyrido[4,3-d]pyrimidin-7-yl)-5-ethyl-6-fluoronaphthalen-2-ol] are above 10 µM and 0.062 µM.
For the compound `CCc1c(F)ccc2cc(O)cc(-c3ncc4c(N5CCC(=O)C(F)(F)C5)nc(OC[C@@]56CCCN5C[C@H](F)C6)nc4c3F)c12` [Example 152, 1-(7-(8-Ethyl-7-fluoro-3-hydroxy-naphthalen-1-yl)-8-fluoro-2-(((2R,7aS)-2-fluorotetrahydro-1H-pyrrolizin-7a(5H)-yl)methoxy)pyrido[4,3-d]pyrimidin-4-yl)-3,3-difluoropiperidin-4-one], the IC50 was found to be 2.67 µM in assay [1] (setting [4]) and 0.004 µM in assay [2].
On the same counts, the results for `CCc1c(F)ccc2cc(O)cc(-c3ncc4c(N5C[C@H](C)C[C@@H](O)C5)nc(OC[C@@]56CCCN5C[C@H](F)C6)nc4c3F)c12` (relative stereo) [Example 160, rel-(3R,5R)-1-(7-(8-Ethyl-7-fluoro-3-hydroxy-naphthalen-1-yl)-8-fluoro-2-(((2R,7aS)-2-fluorotetrahydro-1H-pyrrolizin-7a(5H)-yl)methoxy)pyrido[4,3-d]pyrimidin-4-yl)-5-methylpiperidin-3-ol] are 0.414 µM and 0.003 µM.

The record behind these values is patent US20250034167A1, “HETEROCYCLIC COMPOUNDS AND METHODS OF USE” (AMGEN INC., priority 2021, published 2025).
